Structures can show the parent of a compound that is named as a salt. Where two headings read alike, the source gives them in different places.
Test system: Escherichia coli strain ATCC25922
Assay: standard microdilution assay to determine minimum inhibitory concentrations (MICs)
Type: cell-based
Conditions: Escherichia coli
Description: Minimum inhibitory concentrations (MICs) are determined by the microdilution method, typically in a final volume of 100 microliters, according to protocols outlined by The Clinical and Laboratory Standards Institute [CLSI; formerly the National Committee for Clinical Laboratory Standards (NCCLS)]. See CLSI: Methods for dilution antimicrobial susceptibility tests for bacteria that grow aerobically; approved standard-fifth edition. Wayne, Pa.: NCCLS; 2000. The assays can be also be performed in microtiter trays according to conventional methodologies as published by the CLSI. See CLSI. Methods for Dilution Antimicrobial Susceptibility Tests for Bacteria That Grow Aerobically; Approved Standard—Seventh Edition. CLSI Document M7-A7 [ISBN 1-56238-587-9] CLSI, 940 West Valley Road, Suite 1400, Wayne Pa. 19087-1898 USA, 2006).
The compounds of the present invention were tested for antimicrobial activity. The compounds were run against Escherichia coli strain ATCC25922 using a standard microdilution assay to determine minimum inhibitory concentrations (MICs). […] A “N/A” means that data is unavailable. It will be recognized by one skilled in the art that the compounds can be assessed against other bacterial organisms and that the presentation of data for activity against Escherichia coli is illustrative and in no way is intended to limit the scope of the present invention. The compounds of the present invention can be assayed against a range of other microorganisms depending upon the performance activity desired to be gathered. Furthermore, the “+”, “−”, and “N/A” representation and the selection of a cutoff value of 16 micrograms/ml is also illustrative and in no way is intended to limit the scope of the present invention.

[1] = ATCC25922, Escherichia coli strain ATCC25922, microdilution, read-out: E. coli ATCC25922 MIC
[2] = ATCC25922, read-out: E. coli ATCC25922 MIC

SMILES | MIC [1] | MIC [2]
O=C(NC1CCNCC1)c1ccc(-c2cc3cn(-c4ccc(CNCCCF)c(F)c4)c(=O)nc3[nH]2)c(F)c1 [Compound 280] | > 16 µg/mL | 
NCCCNCc1ccc(-n2cc3cc(-c4ccccc4Cl)[nH]c3nc2=O)cc1 [Compound 288] | > 16 µg/mL | 
NCCCNCc1ccc(-n2cc3cc(CN4CCOC4=O)[nH]c3nc2=O)cc1 [Compound 289] | > 16 µg/mL | 
NCCCNCc1ccc(-n2cc3cc(-c4ccccc4C(F)(F)F)[nH]c3nc2=O)cc1 [Compound 292] | > 16 µg/mL | 
CC(C)NC(=O)CCc1cc2cn(-c3ccc(CNCCCN)cc3)c(=O)nc2[nH]1 [Compound 293] | > 16 µg/mL | 
NCCCNCc1ccc(-n2cc3cc(-c4ccc(OC(F)(F)F)cc4)[nH]c3nc2=O)cc1 [Compound 296] | > 16 µg/mL | 
NCCCNCc1ccc(-n2cc3cc(CCC(=O)N4CC[C@H](F)C4)[nH]c3nc2=O)cc1 [Compound 298] | > 16 µg/mL | 
NCCCNCc1ccc(-n2cc3cc(-c4cc(F)c(F)c(F)c4)[nH]c3nc2=O)cc1 [Compound 306] | > 16 µg/mL | 
NCCCNCc1ccc(-n2cc3cc(-c4ccccc4OC(F)(F)F)[nH]c3nc2=O)cc1 [Compound 309] | > 16 µg/mL | 
NCCCNCc1ccc(-n2cc3cc(-c4cc(F)c(F)cc4F)[nH]c3nc2=O)cc1 [Compound 310] | > 16 µg/mL | 
NCCCN(CCCN)Cc1ccc(-n2cc3cc(-c4ccccc4C(F)(F)F)[nH]c3nc2=O)cc1F [Compound 318] | > 16 µg/mL | 
NCCCNCc1ccc(-n2cc3c(nc2=O)[nH]c2ccccc23)cc1 [Compound 335] | > 16 µg/mL | 
NCCCNCc1ccc(-n2cc3cc[nH]c3nc2=O)cc1 [Compound 498] | > 16 µg/mL | 
NCCCNCc1ccc(-c2cn3cc(-c4ccc(F)cc4)[nH]c3nc2=O)cc1 [Compound 506] | > 16 µg/mL | 
NCCCCCN1CC=C(n2cc3cc(-c4ccc(C(=O)NC5CCNCC5)cc4)[nH]c3nc2=O)CC1 [Compound 507] | < 16 µg/mL | 
NCCCCCN1CC=C(n2cc3cc(-c4ccc(F)cc4)[nH]c3nc2=O)CC1 [Compound 508] | > 16 µg/mL | 
NCCCCN1CC=C(n2cc3cc(-c4ccc(F)cc4)[nH]c3nc2=O)CC1 [Compound 511] | > 16 µg/mL | 
NCCCCN1CCC(n2cc3c(nc2=O)[nH]c2ccccc23)C1 (stereo not shown) [Compound 542] | > 16 µg/mL | 
NCCCCN1CCC(n2cc3cc(-c4ccc(F)cc4)[nH]c3nc2=O)C1 (stereo not shown) [Compound 559] | > 16 µg/mL | 
NCCCCCN1CCC(n2cc3cc(-c4ccc(F)cc4)[nH]c3nc2=O)C1 (stereo not shown) [Compound 560] | > 16 µg/mL | 
O=c1nc2[nH]c(-c3ccc(F)cc3)cc2cn1C1CCNC1 (stereo not shown) [Compound 561] | > 16 µg/mL | 
N=C(N)NCCCCN1CCC(n2cc3c(nc2=O)[nH]c2ccccc23)C1 (stereo not shown) [Compound 562, N-{4-[3-(2-oxo-2,9-dihydro-1,3,9-triaza-fluoren-3-yl)-pyrrolidine-1-yl]-butyl}-guanidine] | > 16 µg/mL | 
NCCCNCc1ccc(-c2cn3cc[nH]c3nc2=O)cc1 [Compound 563, 6-{4-[(3-Amino-propylamino)-methyl]-phenyl}-1H-imidazo[1,2-a]pyrimidin-7-one] | > 16 µg/mL | 

SMILES | MIC [1] | MIC [2]
N=C(N)NCCCNCc1ccc(-c2cn3cc[nH]c3nc2=O)cc1 [Compound 564, N-{3-[4-(7-Oxo-1,7-dihydro-imidazo[1,2-a]pyrimidin-6-yl)-benzylamino]-propyl}-guanidine] | < 16 µg/mL | 
CCCCN1CC=C(c2cn3cc(-c4ccc(F)cc4)[nH]c3nc2=O)CC1 [Compound 565] | > 16 µg/mL | 
N=C(N)NCCCN1CC=C(c2cn3cc(-c4ccc(F)cc4)[nH]c3nc2=O)CC1 [Compound 566] | > 16 µg/mL | 
NCCCN1CCC(c2cn3cc(-c4ccc(F)cc4)[nH]c3nc2=O)CC1 [Compound 567] | > 16 µg/mL | 
NCCCN1CC=C(c2cn3cc[nH]c3nc2=O)CC1 [Compound 571] | > 16 µg/mL | 
N=C(N)NCCCN1CC=C(c2cn3cc[nH]c3nc2=O)CC1 [Compound 572] | > 16 µg/mL | 
Cn1cc2cc(-c3ccc(F)cc3)[nH]c2nc1=O [Compound 580] | > 16 µg/mL | 
Cn1cc2cc(-c3ccc(C(=O)NC4CCNCC4)cc3)[nH]c2nc1=O [Compound 581] | > 16 µg/mL | 
NCCCN1CC=C(c2cn3c(nc2=O)[nH]c2ccccc23)CC1 [Compound 587] | > 16 µg/mL | 
NCCCCN1CC(n2cc3c(nc2=O)[nH]c2ccccc23)C1 [Compound 590] | > 16 µg/mL | 
O=c1nc2[nH]c3ccccc3c2cn1C1CNC1 [Compound 591] | > 16 µg/mL | 
O=c1nc2[nH]c3ccccc3c2cn1C1CCNC1 (stereo not shown) [Compound 597] | > 16 µg/mL | 
NCCCCN1CCC(n2cc3c(nc2=O)[nH]c2ccccc23)CC1 [Compound 600] | > 16 µg/mL | 
NCCCNCc1ccc(-c2cn3c(nc2=O)[nH]c2ccccc23)cc1 [Compound 601, 3-{4-[(3-Amino-propylamino)-methyl]-phenyl}-10H-benzo[4,5]imidazo[1,2-a]pyrimidin-2-one hydrochloride salt] |  | > 16 µg/mL
N=C(N)NCCCNCc1ccc(-c2cn3c(nc2=O)[nH]c2ccccc23)cc1 [Compound 602, N-{3-[4-(2-Oxo-2,10-dihydro-benzo[4,5]imidazo[1,2-a]pyrimidin-3-yl)-benzylamino]-propyl}-guanidine hydrochloride salt] |  | < 16 µg/mL
NCCCNCc1ccc(-n2cc3cc(CCC4CCCCC4)[nH]c3nc2=O)cc1 [Compound 609] | > 16 µg/mL | 
COCc1cc2cn(-c3ccc(CNCCCN)cc3)c(=O)nc2[nH]1 [Compound 610] | > 16 µg/mL | 
NCCCNCc1ccc(-n2cc3cc(-c4ccc(C(F)(F)F)cc4)[nH]c3nc2=O)cc1 [Compound 611] | > 16 µg/mL | 
NCCCNCc1ccc(-n2cc3cc(-c4ccsc4)[nH]c3nc2=O)cc1 [Compound 612] | > 16 µg/mL | 
NCCCNCc1ccc(-n2cc3cc(CN4CCS(=O)(=O)CC4)[nH]c3nc2=O)cc1 [Compound 613] | > 16 µg/mL | 
NCCCNCc1ccc(-c2cn3cc(-c4ccc(Br)cc4)[nH]c3nc2=O)cc1 [Compound 617, 6-{4-[(3-Amino-propylamino)-methyl]-phenyl}-2-(4-bromo-phenyl)-1H-imidazo[1,2-a]pyrimidin-7-one] | > 16 µg/mL | 
N=C(N)NCCCNCc1ccc(-c2cn3cc(-c4ccc(Br)cc4)[nH]c3nc2=O)cc1 [Compound 618] | > 16 µg/mL | 
NCCCNCc1ccc(-n2cc3cc(-c4ccccn4)[nH]c3nc2=O)cc1 [Compound 620] | > 16 µg/mL | 

SMILES | MIC [1] | MIC [2]
NCCCNCc1ccc(-n2cc3cc(Cc4ccccc4)[nH]c3nc2=O)cc1 [Compound 621] | > 16 µg/mL | 
NCCCNCc1ccc(-n2cc3cc(CC4CCCCC4)[nH]c3nc2=O)cc1 [Compound 622] | > 16 µg/mL | 
NCCCNCc1ccc(-n2cc3cc(C4=CCCCC4)[nH]c3nc2=O)cc1 [Compound 623] | > 16 µg/mL | 
NCCCNCc1ccc(-n2cc3cc(CCN)[nH]c3nc2=O)cc1 [Compound 624] | < 16 µg/mL | 
CC(C)(N)c1cc2cn(-c3ccc(CNCCCN)cc3)c(=O)nc2[nH]1 [Compound 625] | > 16 µg/mL | 
NCCCNCc1ccc(-n2cc3cc(COc4ccccc4)[nH]c3nc2=O)cc1 [Compound 626] | > 16 µg/mL | 
N=C(N)NCCCNCc1ccc(-n2cc3cc(CN4CCS(=O)(=O)CC4)[nH]c3nc2=O)cc1 [Compound 628] | > 16 µg/mL | 
N=C(N)NCCCNCc1ccc(-n2cc3cc(-c4ccsc4)[nH]c3nc2=O)cc1 [Compound 629] | < 16 µg/mL | 
N=C(N)NCCCNCc1ccc(-n2cc3cc(COc4ccccc4)[nH]c3nc2=O)cc1 [Compound 630] | > 16 µg/mL | 
CS(=O)(=O)c1ccc(-c2cn3cc(-c4ccc(CNCCCN)cc4)c(=O)nc3[nH]2)cc1 [Compound 631] | > 16 µg/mL | 
CS(=O)(=O)c1ccc(-c2cn3cc(-c4ccc(CNCCCNC(=N)N)cc4)c(=O)nc3[nH]2)cc1 [Compound 632] | > 16 µg/mL | 
NCCCNCc1ccc(-n2cc3cc(-c4ccncc4)[nH]c3nc2=O)cc1 [Compound 633] | > 16 µg/mL | 
CC(C)(C)c1ccc(-c2cc3cn(-c4ccc(CNCCCN)cc4)c(=O)nc3[nH]2)cc1 [Compound 634] | < 16 µg/mL | 
CS(=O)(=O)c1ccc(-c2cn3cc(-c4ccc(CN(CCCN)CCCNC(=N)N)cc4)c(=O)nc3[nH]2)cc1 [Compound 635] | < 16 µg/mL | 
N=C(N)NCCCNCc1ccc(-n2cc3cc(CSc4n[nH]c(N)n4)[nH]c3nc2=O)cc1 [Compound 636] | > 16 µg/mL | 
N=C(N)NCCCNCc1ccc(-n2cc3cc(-c4cccc(NCC(=O)N5CCOCC5)c4)[nH]c3nc2=O)cc1 [Compound 637] | > 16 µg/mL | 
N=C(N)NCCCN(CCCN)Cc1ccc(-c2cn3cc(-c4ccc(Br)cc4)[nH]c3nc2=O)cc1 [Compound 640] | < 16 µg/mL | 
NCCCNCc1ccc(-n2cc3cc(-c4cccc(NCC(=O)N5CCNCC5)c4)[nH]c3nc2=O)cc1 [Compound 644] | < 16 µg/mL | 
N=C(N)NCCCNCc1ccc(-n2cc3cc(-c4cccc(NCC(=O)N5CCNCC5)c4)[nH]c3nc2=O)cc1 [Compound 645] | < 16 µg/mL | 
NCCCNCc1ccc(-c2cn3nc(C4CC4)[nH]c3nc2=O)cc1 [Compound 646] | > 16 µg/mL | 
NCCCNCc1ccc(-c2cn3nc(N)[nH]c3nc2=O)cc1 [Compound 647] | > 16 µg/mL | 

Source: patent US9193731B2, “Antimicrobial compounds and methods of making and using the same” (Melinta Therapeutics, Inc., priority 2009, dated 2015)
